From patent US20210115018A1, “PIPERIDINE COMPOUNDS AS COVALENT MENIN INHIBITORS” (THE REGENTS OF THE UNIVERSITY OF MICHIGAN, priority 2018, published 2021) come the findings set out here.

For orientation: IC50 means the point on the concentration scale where inhibition reaches its midpoint.

The subject of assay [1] is MV4-11. Kind of assay: 7-day proliferation assay (WST-8), cell growth inhibition. The class given is cell-based. The following applies: MV4-11 cells, 7 days. In outline: (§1)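 Cells seeded at 2,000-3,000/well were exposed to serially diluted compound for 7 days at 37° C., 5% CO2. Viability was read by WST-8 absorbance at 450 nm after 1-2 h color development; readings normalized to DMSO-treated cells, IC50 by four-parameter nonlinear regression.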

The target of assay [2] is T1, menin protein (Homo sapiens, UniProt O00255).
T1 sequence (O00255 1-610): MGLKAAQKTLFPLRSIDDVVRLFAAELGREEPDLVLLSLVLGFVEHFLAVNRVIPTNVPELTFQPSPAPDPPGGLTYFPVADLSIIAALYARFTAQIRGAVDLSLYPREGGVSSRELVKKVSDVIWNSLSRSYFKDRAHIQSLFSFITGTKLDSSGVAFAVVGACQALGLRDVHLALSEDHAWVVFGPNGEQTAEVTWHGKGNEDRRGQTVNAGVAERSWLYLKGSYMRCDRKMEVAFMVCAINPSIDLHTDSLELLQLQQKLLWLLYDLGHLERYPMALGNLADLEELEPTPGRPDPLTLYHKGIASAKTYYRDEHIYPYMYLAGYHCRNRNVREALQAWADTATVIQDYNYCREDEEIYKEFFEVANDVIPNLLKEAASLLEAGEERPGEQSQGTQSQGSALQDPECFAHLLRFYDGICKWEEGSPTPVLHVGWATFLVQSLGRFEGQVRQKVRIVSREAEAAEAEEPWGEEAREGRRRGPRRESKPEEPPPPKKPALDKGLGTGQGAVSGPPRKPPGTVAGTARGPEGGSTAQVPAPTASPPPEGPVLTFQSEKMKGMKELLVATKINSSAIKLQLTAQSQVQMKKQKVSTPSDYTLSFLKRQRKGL
Kind of assay: Fluorescence polarization (FP) competitive binding assay, menin binding affinity. The conditions noted are these: FP competition with FAM-MM2 probe 2 nM, menin 4 nM, 30 minutes room temperature. On the procedure:
A fluorescence polarization (FP) competitive binding assay was used to determine the binding affinities of representative menin inhibitors. A FAM labeled fluorescent probe was designed and synthesized based on a MLL1 peptide (FAM-MM2). Equilibrium dissociation constant (Kd) value of FAM-MM2 to menin protein was determined from protein saturation experiments by monitoring the total fluorescence polarization of mixtures composed with the fluorescent probe at a fixed concentration and the protein with increasing concentrations up to full saturation. Serial dilutions of the protein were mixed with FAM-MM2 to a final volume of 200 μl in the assay buffer (PBS with 0.02% Bovine γ-Globulin and 4% DMSO. 0.01% Triton X-100 was added right before assays). Final FAM-MM2 concentration was 2 nM. Plates were incubated at room temperature for 30 minutes with gentle shaking to assure equilibrium. FP values in millipolarization units (mP) were measured using the Infinite M-1000 plate reader (Tecan U.S., Research Triangle Park, N.C.) in Microfluor 1 96-well, black, v-bottom plates (Thermo Scientific, Waltham, Mass.) at an excitation wavelength of 485 nm and an emission wavelength of 530 nm.
The IC50 of representative Compounds of the Disclosure, see Table 3, were determined in a competitive binding experiment. Mixtures of 5 μl of the tested compounds in DMSO and 195 μl of preincubated protein/probe complex solution in the assay buffer were added into assay plates which were incubated at room temperature for 30 minutes with gentle shaking. Final concentration of the menin protein was 4 nM, and final probe concentration is 2 nM. Negative controls containing protein/probe complex only (equivalent to 0% inhibition), and positive controls containing only free probes (equivalent to 100% inhibition), were included in each assay plate. FP values were measured as described above. IC50 values were determined by nonlinear regression fitting of the competition curves.
For orientation: Fluorescence polarisation rises when a labelled molecule tumbles more slowly, as on binding a larger partner.

The subject of assay [3] is MOLM13. Kind of assay: 7-day proliferation assay (WST-8), cell growth inhibition. The class given is cell-based. The following applies: Homo sapiens, MOLM-13, 168 h, MOLM13 cells, 7 days. The gist of the method: as §1
On the technique in general: Formazan colour is commonly taken as a measure of viable cells.

With `C=C(CN(CC)CC)C(=O)N1CC(S(=O)(=O)c2ccc(N3CC(CN4CCC([C@@](CN5CCC5)(c5cccc(F)c5)[C@H]5CCC[C@@H]5NC(=O)OC)CC4)C3)cc2)C1` [Cpd. No. 21, methyl ((1S,2R)-2-((S)-2-(azetidin-1-yl)-1-(1-((1-(4-((1-(2-((diethylamino)methyl)acryloyl)azetidin-3-yl)sulfonyl)phenyl)azetidin-3-yl)methyl)piperidin-4-yl)-1-(3-fluorophenyl)ethyl)cyclopentyl)carbamate], the IC50 in assay [1] (Homo sapiens, MV4-11, 168 h) is less than 10 nM; in assay [2], 2 nM.
The corresponding values for `C=C(CN1CCC1)C(=O)N1CC(S(=O)(=O)c2ccc(N3CC(CN4CCC([C@@](CN5CCC5)(c5cccc(F)c5)[C@H]5CCC[C@@H]5NC(=O)OC)CC4)C3)cc2)C1` [Cpd. No. 22, methyl ((1S,2R)-2-((S)-2-(azetidin-1-yl)-1-(1-((1-(4-((1-(2-(azetidin-1-ylmethyl)acryloyl)azetidin-3-yl)sulfonyl)phenyl)azetidin-3-yl)methyl)piperidin-4-yl)-1-(3-fluorophenyl)ethyl)cyclopentyl)carbamate] are less than 10 nM and 2 nM.
Turning to `COC(=O)N[C@H]1CCC[C@@H]1[C@](CN1CCC1)(c1cccc(F)c1)C1CCN(CC2CN(c3ccc(S(=O)(=O)C4CN(C(=O)/C=C/CN5CCOCC5)C4)cc3)C2)CC1` [Cpd. No. 25, methyl ((1S,2R)-2-((S)-2-(azetidin-1-yl)-1-(3-fluorophenyl)-1-(1-((1-(4-((1-((E)-4-morpholinobut-2-enoyl)azetidin-3-yl)sulfonyl)phenyl)azetidin-3-yl)methyl)piperidin-4-yl)ethyl)cyclopentyl)carbamate], the IC50 in assay [1] (Homo sapiens, MV4-11, 168 h) was less than 10 nM; in assay [2], 7 nM.
With `COC(=O)N[C@H]1CCC[C@@H]1[C@](CN1CCC1)(c1cccc(F)c1)C1CCN(CC2CN(c3ccc(S(=O)(=O)C4CN(C(=O)/C=C/CN5CCC5)C4)cc3)C2)CC1` [Cpd. No. 173, Methyl ((1S,2R)-2-((S)-2-(azetidin-1-yl)-1-(1-((1-(4-((1-((E)-4-(azetidin-1-yl)but-2-enoyl)azetidin-3-yl)sulfonyl)phenyl)azetidin-3-yl)methyl)piperidin-4-yl)-1-(3-fluorophenyl)ethyl)cyclopentyl)carbamate], the IC50 in assay [1] (Homo sapiens, MV4-11, 168 h) was less than 10 nM; in assay [2], 2 nM.
Regarding `COC(=O)N[C@H]1CCC[C@@H]1[C@](CN1CCC1)(c1cccc(F)c1)C1CCN(CC2CN(c3ccc(C(F)(F)C4CN(C(=O)/C=C/CN5CCCCC5)C4)cc3)C2)CC1` [compound 71], the IC50 in assay [1] (Homo sapiens, MV4-11, 168 h) is less than 50 nM; in assay [2] it was 2 nM.
Regarding `C=CC(=O)Nc1cc(F)cc(S(=O)(=O)c2ccc(N3CC(CN4CCC([C@@](CN5CCC5)(c5cccc(F)c5)[C@H]5CCC[C@@H]5NC(=O)OC)CC4)C3)cc2)c1` [compound 72], the IC50 in assay [1] (Homo sapiens, MV4-11, 168 h) is less than 10 nM; in assay [3] it was less than 50 nM.
With `C=CC(=O)Nc1cc(N(C)CCN(C)C)cc(S(=O)(=O)c2ccc(N3CC(CN4CCC([C@@](CN5CCC5)(c5cccc(F)c5)[C@H]5CCC[C@@H]5NC(=O)OC)CC4)C3)cc2)c1` [compound 75], the IC50 in assay [1] (Homo sapiens, MV4-11, 168 h) is less than 10 nM; in assay [3], less than 50 nM.
For `C=CC(=O)Nc1cccc(S(=O)(=O)c2ccc(N3CC(F)(CN4CCC([C@@](CN5CCC5)(c5cccc(F)c5)[C@H]5CCC[C@@H]5NC(=O)OC)CC4)C3)cc2)c1` [compound 76], the IC50 in assay [1] (Homo sapiens, MV4-11, 168 h) was less than 10 nM; in assay [3], less than 50 nM.
With `C=CC(=O)Nc1cc(S(=O)(=O)c2ccc(N3CC(F)(CN4CCC([C@@](CN5CCC5)(c5cccc(F)c5)[C@H]5CCC[C@@H]5NC(=O)OC)CC4)C3)cc2)ccn1` [compound 82], the IC50 is less than 10 nM in assay [1] (Homo sapiens, MV4-11, 168 h) and less than 100 nM in assay [3].
The corresponding values for `C=CC(=O)Nc1cncc(S(=O)(=O)c2ccc(N3CC(F)(CN4CCC([C@@](CN5CCC5)(c5cccc(F)c5)[C@H]5CCC[C@@H]5NC(=O)OC)CC4)C3)cc2)c1` [compound 83] are less than 10 nM and less than 100 nM.
The corresponding values for `C=CC(=O)Nc1cccc(S(=O)(=O)c2ccc(N3CC(F)(CN4CCC([C@@](CN5CCC5)(c5cccc(F)c5)[C@H]5CCC[C@@H]5NC(=O)OC)CC4)C3)cc2)n1` [compound 85] are less than 500 nM and less than 500 nM.
`C=CC(=O)Nc1cncc(S(=O)(=O)c2ccc(N3CC(F)(CN4CCC([C@@](CN5CCC5)(c5cccc(F)c5)[C@H]5CCC[C@@H]5NC(=O)OC)CC4)C3)c(F)c2)c1` [compound 86]: the IC50 in assay [1] is less than 50 nM; in assay [2], 2 nM.
In the case of `C=CC(=O)Nc1cc(F)cc(S(=O)(=O)c2ccc(N3CC(F)(CN4CCC([C@@](CN5CCC5)(c5cccc(F)c5)[C@H]5CCC[C@@H]5NC(=O)OC)CC4)C3)cc2)c1` [compound 88], the IC50 in assay [1] (Homo sapiens, MV4-11, 168 h) is less than 50 nM; in assay [3], less than 50 nM.
In the case of `C=CC(=O)Nc1cc(OC)cc(S(=O)(=O)c2ccc(N3CC(F)(CN4CCC([C@@](CN5CCC5)(c5cccc(F)c5)[C@H]5CCC[C@@H]5NC(=O)OC)CC4)C3)c(F)c2)c1` [compound 91], the IC50 in assay [1] (Homo sapiens, MV4-11, 168 h) is less than 50 nM; in assay [3] it was less than 50 nM.
Consider `C=CC(=O)Nc1cc(S(=O)(=O)c2ccc(N3CC(F)(CN4CCC([C@@](CN5CCC5)(c5cccc(F)c5)[C@H]5CCC[C@@H]5NC(=O)OC)CC4)C3)c(F)c2)ccc1OC` [compound 92], for which the IC50 in assay [1] (Homo sapiens, MV4-11, 168 h) is less than 10 nM; in assay [3], less than 50 nM.
Regarding `COC(=O)N[C@H]1CCC[C@@H]1[C@](CN1CCC1)(c1cccc(F)c1)C1CCN(CC2(F)CN(c3ccc(S(=O)(=O)C4CN(C(=O)/C=C/CN5CCCCC5)C4)cc3F)C2)CC1` [compound 94], the half-maximal inhibitory concentration (IC50) in assay [1] (Homo sapiens, MV4-11, 168 h) is less than 10 nM; in assay [3] it was less than 50 nM.
The corresponding values for `COC(=O)N[C@H]1CCC[C@@H]1[C@](CN1CCC1)(c1cccc(F)c1)C1CCN(CC2(F)CN(c3ccc(S(=O)(=O)C4CN(C(=O)/C=C/CN5CCCCC5)C4)cc3)C2)CC1` [compound 95] are less than 10 nM and less than 50 nM.
For the compound `COC(=O)N[C@H]1CCC[C@@H]1[C@](CN1CCC1)(c1cccc(F)c1)C1CCN(CC2CN(c3ccc(S(=O)(=O)C4CN(C(=O)/C=C/CN5CCC(F)CC5)C4)cc3)C2)CC1` [compound 100], the IC50 in assay [1] (Homo sapiens, MV4-11, 168 h) is less than 10 nM; in assay [2], 4 nM.
In the case of `CC#CC(=O)N1CC(S(=O)(=O)c2ccc(N3CC(F)(CN4CCC([C@@](CN5CCC5)(c5cccc(F)c5)[C@H]5CCC[C@@H]5NC(=O)OC)CC4)C3)c(F)c2)C1` [compound 102], the 50% inhibitory concentration (IC50) in assay [1] (Homo sapiens, MV4-11, 168 h) is less than 10 nM; in assay [3], less than 50 nM.
On to `COC(=O)N[C@H]1CCC[C@@H]1[C@](CN1CCC1)(c1cccc(F)c1)C1CCN(CC2CN(c3ccc(S(=O)(=O)C4CN(C(=O)/C=C/CN5CCC(F)(F)CC5)C4)cc3)C2)CC1` [compound 103], for which the IC50 in assay [1] (Homo sapiens, MV4-11, 168 h) was less than 10 nM; in assay [2], 2 nM.
For `C=CC(=O)N1CCCC(S(=O)(=O)c2ccc(N3CC(F)(CN4CCC([C@@](CN5CCC5)(c5cccc(F)c5)[C@H]5CCC[C@@H]5NC(=O)OC)CC4)C3)cc2)C1` (some centres unmarked) [compound 112], the IC50 in assay [1] (Homo sapiens, MV4-11, 168 h) was less than 50 nM; in assay [3], less than 50 nM.
On to `CC#CC(=O)N1CC[C@@H](S(=O)(=O)c2ccc(N3CC(O)(CN4CCC([C@@](CNC(C)=O)(c5cccc(F)c5)[C@H]5CCC[C@@H]5NC(=O)OC)CC4)C3)c(F)c2)C1` [compound 206], for which the IC50 in assay [1] (Homo sapiens, MV4-11, 168 h) was less than 50 nM; in assay [2], 2 nM.
